Experimental data: ChEMBL document CHEMBL4184177, “Synthesis and bioevaluation study of novel N-methylpicolinamide and thienopyrimidine derivatives as selectivity c-Met kinase inhibitors” (Bioorg Med Chem, 2018)
Calls of active or inactive are those of the source. No cut-off for these calls is given here.

Columns and labels:
[1] = system: HepG2; test: Induction of morphological changes in human HepG2 cells assessed as cell shrinkage at 0.47 uM by acridine orange dye based inverted microscopy and fluorescence microscopic method; assay type: functional
[2] = system: HepG2; test: Induction of apoptosis in human HepG2 cells by Annexin V-FITC/propidium iodide staining based flow cytometry; assay type: functional, cell-based
[3] = system: HepG2; test: Induction of morphological changes in human HepG2 cells assessed as chromatin condensation at 0.47 uM by acridine orange dye based inverted microscopy and fluorescence microscopic method; assay type: functional, cell-based
[4] = target: Epidermal growth factor receptor (Homo sapiens, UniProt P00533); test: Inhibition of EGFR (unknown origin) using FAM-labeled peptide substrate after 10 mins by mobility shift assay
[5] = target: Mast/stem cell growth factor receptor Kit (Homo sapiens, UniProt P10721); test: Inhibition of c-Kit (unknown origin) using FAM-labeled peptide substrate after 10 mins by mobility shift assay
[6] = system: A549; test: Cytotoxicity against human A549 cells after 72 hrs by MTT assay; conditions: A549, 72 h
[7] = system: MCF7; test: cells; conditions: Homo sapiens, MCF7, 72 h
Description: Cytotoxicity against human MCF7 cells after 72 hrs by MTT assay

[8] = system: MCF7; test: Potency index, ratio of foretinib IC50 to compound IC50 for human MCF7 cells; assay type: functional
[9] = system: HepG2; test: Induction of apoptosis in human HepG2 cells assessed as live cells at 0.23 uM by Annexin V-FITC/propidium iodide staining based flow cytometry (reference value: 96.54%); assay type: functional
[10] = target: Hepatocyte growth factor receptor (Homo sapiens, UniProt P08581); test: Inhibition of c-Met (unknown origin) using FAM-labeled peptide substrate after 10 mins by mobility shift assay
[11] = system: HepG2; test: Induction of apoptosis in human HepG2 cells assessed as early apoptotic cells at 0.23 uM by Annexin V-FITC/propidium iodide staining based flow cytometry (reference value: 1.11%); assay type: functional
[12] = system: HepG2; test: Induction of apoptosis in human HepG2 cells assessed as late apoptotic cells at 0.23 uM by Annexin V-FITC/propidium iodide staining based flow cytometry (reference value: 2.07%); assay type: functional
[13] = target: Vascular endothelial growth factor receptor 2 (Homo sapiens, UniProt P35968); test: Inhibition of VEGFR2 (unknown origin) using FAM-labeled peptide substrate after 10 mins by mobility shift assay
[14] = system: HepG2; test: Induction of apoptosis in human HepG2 cells assessed as necrotic cells at 0.94 uM by Annexin V-FITC/propidium iodide staining based flow cytometry (reference value: 0.28%); assay type: functional
[15] = system: HepG2; test: Potency index, ratio of foretinib IC50 to compound IC50 for human HepG2 cells; assay type: functional
[16] = target: T1, Receptor-type tyrosine-protein kinase FLT3 (Homo sapiens, UniProt P36888); test: Inhibition of FLT3 (unknown origin) using FAM-labeled peptide substrate after 10 mins by mobility shift assay
T1 sequence (P36888 whole entry): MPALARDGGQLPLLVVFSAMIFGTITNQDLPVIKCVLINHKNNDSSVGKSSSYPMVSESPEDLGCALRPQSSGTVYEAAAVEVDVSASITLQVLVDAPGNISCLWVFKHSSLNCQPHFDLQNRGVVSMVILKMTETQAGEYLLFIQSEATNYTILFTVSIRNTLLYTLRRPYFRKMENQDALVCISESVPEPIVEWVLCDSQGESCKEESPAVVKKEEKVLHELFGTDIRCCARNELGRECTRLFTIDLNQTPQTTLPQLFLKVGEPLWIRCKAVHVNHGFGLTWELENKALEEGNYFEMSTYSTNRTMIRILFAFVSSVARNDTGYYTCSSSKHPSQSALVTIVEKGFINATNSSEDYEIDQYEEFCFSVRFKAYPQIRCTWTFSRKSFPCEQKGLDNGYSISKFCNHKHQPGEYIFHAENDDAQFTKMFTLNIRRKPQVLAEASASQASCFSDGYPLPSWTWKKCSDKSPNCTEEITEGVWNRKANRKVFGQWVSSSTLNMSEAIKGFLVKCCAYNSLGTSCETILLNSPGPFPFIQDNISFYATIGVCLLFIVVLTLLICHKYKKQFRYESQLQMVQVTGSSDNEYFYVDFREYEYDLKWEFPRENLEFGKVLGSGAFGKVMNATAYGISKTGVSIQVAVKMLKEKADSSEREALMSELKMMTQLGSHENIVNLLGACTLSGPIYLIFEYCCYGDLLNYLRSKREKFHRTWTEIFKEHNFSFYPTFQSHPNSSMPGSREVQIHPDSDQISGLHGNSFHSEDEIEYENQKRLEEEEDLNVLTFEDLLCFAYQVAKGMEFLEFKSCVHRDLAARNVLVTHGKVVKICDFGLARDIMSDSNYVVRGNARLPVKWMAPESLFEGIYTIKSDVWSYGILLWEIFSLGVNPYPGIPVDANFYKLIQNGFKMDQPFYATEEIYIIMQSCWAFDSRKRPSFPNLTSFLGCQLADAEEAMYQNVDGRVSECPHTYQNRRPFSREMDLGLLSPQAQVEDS

[17] = system: HepG2; test: Induction of apoptosis in human HepG2 cells assessed as live cells at 0.94 uM by Annexin V-FITC/propidium iodide staining based flow cytometry (reference value: 96.54%); assay type: functional
[18] = system: HepG2; test: Induction of apoptosis in human HepG2 cells assessed as late apoptotic cells at 0.47 uM by Annexin V-FITC/propidium iodide staining based flow cytometry (reference value: 2.07%); assay type: functional
[19] = system: HepG2; test: Induction of apoptosis in human HepG2 cells assessed as necrotic cells at 0.23 uM by Annexin V-FITC/propidium iodide staining based flow cytometry (reference value: 0.28%); assay type: functional
[20] = system: HepG2; test: Induction of apoptosis in human HepG2 cells assessed as late apoptotic cells at 0.94 uM by Annexin V-FITC/propidium iodide staining based flow cytometry (reference value: 2.07%); assay type: functional
[21] = system: HepG2; test: Induction of apoptosis in human HepG2 cells assessed as necrotic cells at 0.47 uM by Annexin V-FITC/propidium iodide staining based flow cytometry (reference value: 0.28%); assay type: functional
[22] = system: HepG2; test: cells; conditions: Homo sapiens, HepG2, 72 h
Description: Cytotoxicity against human HepG2 cells after 72 hrs by MTT assay

[23] = system: HepG2; test: Induction of apoptosis in human HepG2 cells assessed as early apoptotic cells at 0.47 uM by Annexin V-FITC/propidium iodide staining based flow cytometry (reference value: 1.11%); assay type: functional
[24] = system: HepG2; test: Induction of apoptosis in human HepG2 cells assessed as live cells at 0.47 uM by Annexin V-FITC/propidium iodide staining based flow cytometry (reference value: 96.54%); assay type: functional
[25] = system: HepG2; test: Induction of apoptosis in human HepG2 cells assessed as early apoptotic cells at 0.94 uM by Annexin V-FITC/propidium iodide staining based flow cytometry (reference value: 1.11%); assay type: functional

Vascular endothelial growth factor receptor 2, sequence (P35968 whole entry): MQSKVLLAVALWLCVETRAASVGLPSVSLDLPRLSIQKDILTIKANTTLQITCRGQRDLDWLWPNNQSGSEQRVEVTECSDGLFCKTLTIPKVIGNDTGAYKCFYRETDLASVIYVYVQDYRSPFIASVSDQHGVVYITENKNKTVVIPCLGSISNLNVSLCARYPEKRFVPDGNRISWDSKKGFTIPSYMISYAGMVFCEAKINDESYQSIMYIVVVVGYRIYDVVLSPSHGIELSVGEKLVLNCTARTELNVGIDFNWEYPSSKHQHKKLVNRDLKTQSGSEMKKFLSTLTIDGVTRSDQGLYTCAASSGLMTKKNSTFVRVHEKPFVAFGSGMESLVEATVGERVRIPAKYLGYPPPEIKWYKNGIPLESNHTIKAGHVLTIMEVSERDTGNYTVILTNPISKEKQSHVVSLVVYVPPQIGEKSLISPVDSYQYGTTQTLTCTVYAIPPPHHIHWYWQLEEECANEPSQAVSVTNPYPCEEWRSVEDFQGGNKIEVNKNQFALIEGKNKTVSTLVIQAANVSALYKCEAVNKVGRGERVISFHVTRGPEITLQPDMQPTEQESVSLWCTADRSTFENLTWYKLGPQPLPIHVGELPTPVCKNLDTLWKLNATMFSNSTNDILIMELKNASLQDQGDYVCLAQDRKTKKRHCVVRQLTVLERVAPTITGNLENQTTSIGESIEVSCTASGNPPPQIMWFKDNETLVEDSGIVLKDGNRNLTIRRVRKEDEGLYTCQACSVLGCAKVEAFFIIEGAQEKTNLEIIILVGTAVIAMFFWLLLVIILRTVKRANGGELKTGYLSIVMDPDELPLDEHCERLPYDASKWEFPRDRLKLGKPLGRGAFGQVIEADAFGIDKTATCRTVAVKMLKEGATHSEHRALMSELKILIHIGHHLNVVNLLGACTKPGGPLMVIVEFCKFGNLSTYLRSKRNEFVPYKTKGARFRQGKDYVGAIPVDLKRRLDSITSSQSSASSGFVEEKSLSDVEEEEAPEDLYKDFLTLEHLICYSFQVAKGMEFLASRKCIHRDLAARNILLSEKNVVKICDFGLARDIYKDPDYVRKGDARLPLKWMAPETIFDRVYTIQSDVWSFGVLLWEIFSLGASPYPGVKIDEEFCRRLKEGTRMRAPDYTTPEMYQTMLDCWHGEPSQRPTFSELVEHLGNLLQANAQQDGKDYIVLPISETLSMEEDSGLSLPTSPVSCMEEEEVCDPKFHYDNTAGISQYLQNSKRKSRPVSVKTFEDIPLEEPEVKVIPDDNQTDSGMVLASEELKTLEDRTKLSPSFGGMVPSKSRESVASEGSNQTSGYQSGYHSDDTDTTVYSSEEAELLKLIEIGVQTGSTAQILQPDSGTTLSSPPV
Hepatocyte growth factor receptor, sequence (P08581 whole entry): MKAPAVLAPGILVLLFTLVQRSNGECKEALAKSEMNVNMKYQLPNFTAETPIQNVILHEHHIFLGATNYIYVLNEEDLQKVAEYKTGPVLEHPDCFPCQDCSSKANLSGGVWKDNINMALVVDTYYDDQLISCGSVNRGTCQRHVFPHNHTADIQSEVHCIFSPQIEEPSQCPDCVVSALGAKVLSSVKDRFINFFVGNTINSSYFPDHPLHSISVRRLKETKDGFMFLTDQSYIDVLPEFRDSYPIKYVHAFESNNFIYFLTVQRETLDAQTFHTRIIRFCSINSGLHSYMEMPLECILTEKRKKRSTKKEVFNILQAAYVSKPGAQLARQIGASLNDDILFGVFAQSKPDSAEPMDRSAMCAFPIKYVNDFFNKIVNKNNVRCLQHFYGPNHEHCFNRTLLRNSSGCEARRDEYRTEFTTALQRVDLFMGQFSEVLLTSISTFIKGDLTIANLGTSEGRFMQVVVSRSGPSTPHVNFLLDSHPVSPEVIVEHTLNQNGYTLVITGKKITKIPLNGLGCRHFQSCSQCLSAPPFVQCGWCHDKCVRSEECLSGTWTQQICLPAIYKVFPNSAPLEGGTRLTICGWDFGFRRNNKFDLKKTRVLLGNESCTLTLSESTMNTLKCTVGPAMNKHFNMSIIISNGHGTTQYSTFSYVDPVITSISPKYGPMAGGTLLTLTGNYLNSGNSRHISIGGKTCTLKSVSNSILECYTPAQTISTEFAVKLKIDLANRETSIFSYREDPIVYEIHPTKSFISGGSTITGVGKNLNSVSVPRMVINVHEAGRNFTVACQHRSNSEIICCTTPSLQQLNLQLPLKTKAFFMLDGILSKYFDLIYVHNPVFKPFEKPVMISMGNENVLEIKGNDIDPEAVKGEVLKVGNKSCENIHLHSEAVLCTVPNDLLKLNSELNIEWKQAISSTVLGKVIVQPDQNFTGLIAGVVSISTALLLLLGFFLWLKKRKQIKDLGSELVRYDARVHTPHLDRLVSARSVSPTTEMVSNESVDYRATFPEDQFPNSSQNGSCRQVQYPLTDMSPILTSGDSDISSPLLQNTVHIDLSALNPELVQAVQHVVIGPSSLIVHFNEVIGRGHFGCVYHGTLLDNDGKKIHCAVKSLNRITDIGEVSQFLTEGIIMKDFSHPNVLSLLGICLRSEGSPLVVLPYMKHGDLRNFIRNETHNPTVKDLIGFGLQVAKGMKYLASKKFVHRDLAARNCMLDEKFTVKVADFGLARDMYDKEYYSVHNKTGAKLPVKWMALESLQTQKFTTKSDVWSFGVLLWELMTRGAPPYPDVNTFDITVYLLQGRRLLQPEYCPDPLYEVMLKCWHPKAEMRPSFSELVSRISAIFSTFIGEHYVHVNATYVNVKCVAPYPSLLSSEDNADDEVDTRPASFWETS
Epidermal growth factor receptor, sequence (P00533 whole entry): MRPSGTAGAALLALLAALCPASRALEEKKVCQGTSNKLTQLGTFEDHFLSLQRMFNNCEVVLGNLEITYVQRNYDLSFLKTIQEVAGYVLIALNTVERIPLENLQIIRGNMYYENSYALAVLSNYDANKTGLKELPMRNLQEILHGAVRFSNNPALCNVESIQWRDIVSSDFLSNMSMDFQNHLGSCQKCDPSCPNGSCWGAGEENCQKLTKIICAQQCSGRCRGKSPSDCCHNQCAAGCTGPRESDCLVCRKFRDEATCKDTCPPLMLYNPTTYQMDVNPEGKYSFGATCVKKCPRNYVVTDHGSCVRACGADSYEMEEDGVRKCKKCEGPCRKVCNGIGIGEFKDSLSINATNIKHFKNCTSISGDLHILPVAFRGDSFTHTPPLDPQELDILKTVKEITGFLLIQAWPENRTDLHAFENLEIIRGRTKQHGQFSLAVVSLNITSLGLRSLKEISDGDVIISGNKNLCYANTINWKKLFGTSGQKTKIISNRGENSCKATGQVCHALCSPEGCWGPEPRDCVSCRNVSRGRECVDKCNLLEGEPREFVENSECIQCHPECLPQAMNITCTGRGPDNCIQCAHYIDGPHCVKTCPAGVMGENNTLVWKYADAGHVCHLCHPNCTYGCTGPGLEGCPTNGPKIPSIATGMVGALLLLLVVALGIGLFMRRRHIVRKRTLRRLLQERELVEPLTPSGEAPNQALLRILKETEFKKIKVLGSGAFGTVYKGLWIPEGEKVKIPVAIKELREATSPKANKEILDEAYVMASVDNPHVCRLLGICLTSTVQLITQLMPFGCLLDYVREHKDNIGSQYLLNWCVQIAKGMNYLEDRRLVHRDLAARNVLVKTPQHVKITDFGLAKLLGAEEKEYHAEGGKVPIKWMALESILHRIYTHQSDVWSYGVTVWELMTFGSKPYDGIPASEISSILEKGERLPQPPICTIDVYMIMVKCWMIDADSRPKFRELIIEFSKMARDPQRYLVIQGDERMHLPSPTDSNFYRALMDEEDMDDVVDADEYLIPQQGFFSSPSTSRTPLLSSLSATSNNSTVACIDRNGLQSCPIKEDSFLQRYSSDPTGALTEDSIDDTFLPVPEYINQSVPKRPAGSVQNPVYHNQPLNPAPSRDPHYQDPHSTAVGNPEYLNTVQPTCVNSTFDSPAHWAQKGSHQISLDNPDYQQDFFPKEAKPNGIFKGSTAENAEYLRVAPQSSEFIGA
Mast/stem cell growth factor receptor Kit, sequence (P10721 whole entry): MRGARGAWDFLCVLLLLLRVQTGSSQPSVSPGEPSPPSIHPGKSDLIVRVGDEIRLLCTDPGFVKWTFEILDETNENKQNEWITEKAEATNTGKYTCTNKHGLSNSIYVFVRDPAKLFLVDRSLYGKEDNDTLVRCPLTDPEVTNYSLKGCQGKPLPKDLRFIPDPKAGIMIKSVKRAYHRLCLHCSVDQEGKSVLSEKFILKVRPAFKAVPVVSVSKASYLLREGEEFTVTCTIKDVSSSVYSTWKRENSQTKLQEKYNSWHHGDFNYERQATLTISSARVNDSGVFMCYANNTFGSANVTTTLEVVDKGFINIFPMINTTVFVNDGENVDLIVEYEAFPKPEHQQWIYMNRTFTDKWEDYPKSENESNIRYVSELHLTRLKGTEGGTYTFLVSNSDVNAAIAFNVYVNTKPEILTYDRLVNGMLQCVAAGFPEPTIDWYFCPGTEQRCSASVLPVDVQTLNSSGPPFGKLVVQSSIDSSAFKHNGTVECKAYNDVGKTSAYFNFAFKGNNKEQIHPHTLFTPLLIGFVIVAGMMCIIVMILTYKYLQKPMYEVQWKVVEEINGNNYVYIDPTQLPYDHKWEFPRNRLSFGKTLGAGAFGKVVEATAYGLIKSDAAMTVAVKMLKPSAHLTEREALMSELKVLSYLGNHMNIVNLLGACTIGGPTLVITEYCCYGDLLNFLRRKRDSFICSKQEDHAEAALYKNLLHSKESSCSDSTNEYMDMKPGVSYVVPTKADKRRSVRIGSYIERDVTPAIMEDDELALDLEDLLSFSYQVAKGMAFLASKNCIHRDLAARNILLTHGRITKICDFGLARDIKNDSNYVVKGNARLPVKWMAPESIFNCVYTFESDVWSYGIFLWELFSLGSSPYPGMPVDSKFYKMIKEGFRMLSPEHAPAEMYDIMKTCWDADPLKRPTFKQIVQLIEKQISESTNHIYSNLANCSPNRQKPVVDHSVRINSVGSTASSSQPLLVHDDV

## Cc1cc(=O)n(-c2ccc(F)cc2)nc1C(=O)Nc1ccc(Oc2ncnc3ccsc23)c(F)c1
[1]
  Activity: Active
[2]
  Activity: Dose-dependent effect
[3]
  Activity: Active
[4]
  IC50: 6900 nM
[5]
  IC50: 3700 nM
[6]
  IC50: 580 nM
[7]
  IC50: 740 nM
[8]
  Ratio IC50: 3.73 - 5.39
[9]
  Activity: 84.11%
[10]
  IC50: 19 nM
[11]
  Activity: 8.08%
[12]
  Activity: 6.54%
[13]
  IC50: 450 nM
[14]
  Activity: 2.31%
[15]
  Ratio IC50: 3.73 - 5.39
[16]
  IC50: 950 nM
[17]
  Activity: 62.8%
[18]
  Activity: 10.3%
[19]
  Activity: 1.28%
[20]
  Activity: 21%
[21]
  Activity: 1.25%
[22]
  IC50: 470 nM
[23]
  Activity: 16.09%
[24]
  Activity: 72.36%
[25]
  Activity: 13.9%
